Data reported in US7658727B1, “Implantable medical device with enhanced biocompatibility and biostability” (Medtronic, Inc, priority 1998, dated 2010).

Legend:
Type in all cases: cell-based
IL-1α = assay: In vitro expression of IL-1α in human primary monocytes; settings: DEX 2.5, 0.25, 0.025 μg/ml; methotrexate 50, 5, 0.5 μg/ml
Description: (§2) In order to assess the in vitro expression of IL-1α and IL-8, human primary monocytes were incubated with various concentrations of DEX (2.5, 0.25, and 0.025 μg/ml) and methotrexate (50, 5, and 0.5 μg/ml).

IL-8 = assay: In vitro expression of IL-8 in human primary monocytes; settings: DEX 2.5, 0.25, 0.025 μg/ml; methotrexate 50, 5, 0.5 μg/ml
Description: as §2

[1] = system: human monocyte-derived macrophage (Mo/MØs); assay: Morphology of Mo/MØ monolayers on polyetherurethane (OM, SEM); settings: Mo/MØs cultured on PEU with DSP in culture media
Description: Human and rabbit blood was used as sources of the cells in these experiments. Blood was anticoagulated with 2 units/ml sodium heparin (Upjohn Co., Kalamazoo, MI). Mononuclear cells (lymphocytes, monocytes) were isolated within 15 minutes by a one-step density gradient centrifugation procedure using Isopaque-1077 (a density gradient solution) according to a modified Boyum's method (Boyum et al., Blood Separation and Plasma Fractionation, 217-239, Wiley-Liss, Inc. (1991)). The mononuclear cells were harvested and washed twice with cold Hanks balanced salt solution (HBSS) without Ca^2+ and Mg^2+ to minimize cell aggregation. The cells were then resuspended in standard media (RPMI-1640, 10% Fetal bovine serum, […], 10 Ul/ml Penicillin-G, and 0.1 mg/ml Streptomycin). The cell suspension was seeded into several plastic tissue culture flasks and incubated in the presence of 5% CO2 at 37° C. for 1 hour (Ackerman et al., J. Immunol., 20, 1372-1374 (1978)). After this incubation, adherent (monocytes) were gently scrapped from the surface and resuspended in standard media. […]
(§1) The polymer films (0.12 mm thick) were sufficiently thin and transparent to enable visualization of cells on their surfaces during cell culturing using optical microscopy (OM) with an Olympus BX40 light microscope. […] The polymer surfaces were also evaluated using SEM following the 10-day treatment with FeCl2. […]

human Mo/MØs = assay: Surface analysis (OM/SEM) for environmental stress cracking after macrophage/FeCl2 treatment; settings: AS PEU exposed to Mo/MØs plus DSP followed by FeCl2
Description: Macrophage Treatment. The PEU film specimens (AS and non-AS) in the microwell plates were covered with either freshly isolated human or rabbit monocyte-derived macrophage (Mo/MØs), or human lymphocytes (3×10^5 cells per well) and cultured in a standard media (RPMI-1640, 10% Fetal bovine serum, […], 10 Ul/ml Penicillin-G and 0.1 mg/ml Streptomycin). A 49-day macrophage treatment was conducted under standard conditions (i.e., presence of 5% CO2, and 95% humidity at 37° C.). […] Two blank conditions were also studied. In one, culture media only was placed into the microwells. The other was prepared with no culture media and stored in the dark. All polymer specimens were incubated for the time of the first treatment. Samples in triplicate were removed after various time periods for hydroperoxide determination. After a 49-day incubation, specimens were prepared in triplicate for the second step of the sample treatment protocol.
FeCl2 treatment. […]
as §1

In the case of `CN(Cc1cnc2nc(N)nc(N)c2n1)c1ccc(C(=O)N[C@@H](CCC(=O)O)C(=O)O)cc1` [methotrexate], the IL-1 inhibition (IL-1α) is reported as “higher rate of IL-1 and IL-8 inhibition” and the IL-8 inhibition (IL-8) is reported as “higher rate of IL-1 and IL-8 inhibition”.

`C[C@@H]1C[C@H]2[C@@H]3CCC4=CC(=O)C=C[C@]4(C)[C@@]3(F)[C@@H](O)C[C@]2(C)[C@@]1(O)C(=O)COP(=O)(O)O` [DSP, dexamethasone sodium phosphate] was tested, and the “cell size of Mo/MØ monolayers (OM)” value [1] was “no increase in cell size” and the “surface damage (SEM) after FeCl2” value (human Mo/MØs) was “only very occasional pits”.
